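Growth conditions: 96-well plates. Treatment: test compound, 48 hours, 5 concentrations. Analysis: linear interpolation between bracketing concentrations; unreached endpoints set to highest concentration. TGI: concentration producing complete growth inhibition.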
Experiments:
Test in all cases: NCI-60 cell line screen, 48 h
K-562 leukemia = system: K-562 leukemia
MOLT-4 leukemia = system: MOLT-4 leukemia
M19-MEL melanoma = system: M19-MEL melanoma
KM20L2 colon = system: KM20L2 colon
DMS 114 small cell lung = system: DMS 114 small cell lung
SNB-78 CNS = system: SNB-78 CNS
DMS 273 small cell lung = system: DMS 273 small cell lung
DLD-1 colon = system: DLD-1 colon
LXFL 529 NSCLC = system: LXFL 529 NSCLC
XF 498 CNS = system: XF 498 CNS
RXF-631 renal = system: RXF-631 renal
HOP-18 NSCLC = system: HOP-18 NSCLC

Row | Structure (SMILES) | TGI (K-562 leukemia) | TGI (MOLT-4 leukemia) | further results
1 | COc1ccc(/C=C/C(=N/NC(=O)N/N=C(/C=C/c2ccc(OC)cc2)C(C)C)C(C)C)cc1 | > 100 µM | > 100 µM | 
2 | C(=C\c1ccccc1)/Cn1nc(-c2ccccc2)nc1-c1cnccn1 | > 100 µM | > 100 µM | 
3 | c1ccc2c(c1)Sc1ccccc1N2CCCN1c2ccccc2Sc2ccccc21 | > 100 µM | > 100 µM | 
4 | COC1/C=C/C(C)C(C(C)C(OC)C(C)CCC(=O)C(C)C(CC(=O)O)OC)OC(=O)/C=C/C=C(\C)CC(OC)C(OC)C2=CC(=O)O[C@@H](C(C)C(OC)CC(OC)/C=C/C(C)C(O)C1)[C@H]2O (some centres undefined) | > 1.07 µM | > 1.07 µM | 
5 | COc1ccccc1-c1n[nH]c(-c2ccccc2O)n1 | > 100 µM | > 100 µM | 
6 | O=C1CCCSCCCC(=O)CCCSCCC1 | > 100 µM | > 100 µM | 
7 | COC(=O)C1=C(C(=O)OC)C2(c3ccccc3)c3ccccc3C(=O)C1N2C1CCCCC1 (centres undefined) | > 100 µM | > 81.4 µM | 
8 | O=C1CSC2(CC(/C=C/c3cccc(Br)c3)=NN2c2cccc(S(=O)(=O)O)c2)N1c1nc2ccccc2s1 (centres undefined) | > 100 µM | > 100 µM | 
9 | c1ccc2nc3c(nc2c1)sc1nc2ccccc2n13 | > 100 µM | > 100 µM | 
10 | COc1nc(N)nc2c1n(C)c[n+]2C | > 100 µM | > 100 µM | 
11 | CC1=CC(=C(c2ccc(N)c(C)c2)c2ccc(N)c(C)c2)C=CC1=N | 22.5 µM | 30.9 µM | TGI (M19-MEL melanoma): 14.7 µM; TGI (KM20L2 colon): 14.5 µM; TGI (DMS 114 small cell lung): 9.96 µM; TGI (SNB-78 CNS): 23.4 µM; TGI (DMS 273 small cell lung): 10.8 µM; TGI (DLD-1 colon): > 100 µM; TGI (LXFL 529 NSCLC): 15 µM; TGI (XF 498 CNS): 11.7 µM
12 | CC(C)(C)c1ccc(Oc2ccc(C#N)c(C#N)c2)c(C(C)(C)C)c1 | > 64.9 µM | 52.9 µM | TGI (KM20L2 colon): > 100 µM; TGI (RXF-631 renal): > 100 µM; TGI (DMS 114 small cell lung): > 52.2 µM; TGI (SNB-78 CNS): > 100 µM; TGI (DMS 273 small cell lung): 28.5 µM; TGI (HOP-18 NSCLC): > 100 µM; TGI (DLD-1 colon): > 100 µM; TGI (LXFL 529 NSCLC): > 100 µM; TGI (XF 498 CNS): 35.4 µM
13 | COC(=O)C1=C(O)C(C(=O)OC)[C@]2(O)[C@H](C(=O)OC)[C@H]1C[C@@H](c1ccc(O)cc1)[C@H]2C(=O)OC (some centres undefined) | > 100 µM | > 100 µM | 
14 | CCOC(=O)N(C)CCC1CC=CC(=O)C1c1cccc(OC)c1OC (centres undefined) | > 100 µM | 64.5 µM | 
15 | CN(C)Cc1cc(N=Nc2c(Cl)cccc2Cl)ccc1O | > 100 µM | > 100 µM | 
16 | CC1(C)C2CC1C(/C=N\OCC(=O)O)=CC2=O (centres undefined) | > 100 µM | > 100 µM | 
17 | CCCCC1=C(C(=O)N2CCOCC2)C2(OCCO2)C1Cl (centres undefined) |  | > 100 µM | 
18 | N#Cc1c(-c2cccc(Br)c2)cc(-c2ccc(Cl)cc2)nc1N | 81.9 µM | 50.1 µM | 
19 | COc1cccc2c1C(=O)c1c(O)c3c(c(O)c1C2=O)CC(O)(C(C)=O)CC3OC1CC([N+](C)(C)C)C(O)C(C)O1 (centres undefined) | > 100 µM | 56.1 µM | TGI (M19-MEL melanoma): > 100 µM; TGI (KM20L2 colon): > 100 µM; TGI (RXF-631 renal): > 100 µM; TGI (DMS 114 small cell lung): > 100 µM; TGI (SNB-78 CNS): > 100 µM; TGI (DMS 273 small cell lung): > 100 µM; TGI (HOP-18 NSCLC): > 100 µM; TGI (DLD-1 colon): > 100 µM; TGI (LXFL 529 NSCLC): > 100 µM; TGI (XF 498 CNS): 92.2 µM

Row | Structure (SMILES) | TGI (K-562 leukemia) | TGI (MOLT-4 leukemia) | further results
20 | Cc1cc2c(c(C=Nc3ccc(N(C)C)cc3)c1)OC1(C=C2)Oc2ccccc2C(=O)N1C (centres undefined) | 21.1 µM | 23.5 µM | 
21 | Cc1ccc(-n2nnc3c(NNc4ccccc4)n[nH]c(=O)c32)cc1 | > 100 µM | > 100 µM | 
22 | O=c1ccc(-c2ccc(-n3ccnc3)cc2)nn1CCO |  | > 100 µM | 
23 | CN1NC2=NCCN=C3NN(C)C(=NCCN=C1S2)S3 | > 100 µM | > 100 µM | TGI (M19-MEL melanoma): > 100 µM; TGI (KM20L2 colon): > 100 µM; TGI (SNB-78 CNS): > 100 µM; TGI (DMS 273 small cell lung): > 100 µM; TGI (HOP-18 NSCLC): > 100 µM; TGI (DLD-1 colon): > 100 µM; TGI (LXFL 529 NSCLC): > 100 µM
24 | CNc1nc2c(C)ccc3nc(N(C)C)nc-3c2n1C | > 10 µM | > 10 µM | 
25 | CC(=O)N1c2ccccc2C2=NN=C(N(C)C)SC21 (centres undefined) | 18.8 µM | > 100 µM | 
26 | Cc1ccc([N+](=O)[O-])cc1S(=O)(=O)Nc1ccc(C2=NOC(c3ccccc3)C2)cc1 (centres undefined) | 5.14 µM | 9.23 µM | 
27 | COC(=O)CC(SCCO)SCCO | > 100 µM | > 100 µM | 
28 | Nc1nc([O-])c([I+]c2ccccc2)c(=O)[nH]1 | > 100 µM | > 100 µM | 
29 | CC1CC/C(=C\c2ccc(Cl)cc2)C(=O)/C1=C\c1ccc(Cl)cc1 (centres undefined) | > 100 µM |  | 
30 | O=S(=O)(O)c1cccc2ccc(O)c(N=Nc3ccc(S(=O)(=O)c4ccc(N=Nc5c(O)ccc6cccc(S(=O)(=O)O)c56)cc4)cc3)c12 | > 100 µM | > 100 µM | 
31 | O=c1oc2ccccc2cc1-c1nc2ccccc2c(=O)[nH]1 | > 100 µM | > 100 µM | 
32 | COC(=O)/C=C/COCC1C2CCC(=O)C21 (centres undefined) | > 100 µM | > 100 µM | 
33 | COC(=O)C1=C(O)C(C(=O)OC)[C@]2(O)[C@H](C(=O)OC)[C@H]1C[C@@H](c1ccc(Cl)cc1Cl)[C@H]2C(=O)OC (some centres undefined) | 14 µM | 8.98 µM | 
34 | O=C(/C=C/c1ccsc1)c1cccs1 | > 100 µM | > 10 µM | 
35 | COC1=C(OC)C(=O)c2cc(SC)c(=O)c(SC)cc2C1=O | 33.3 µM | 17.4 µM | TGI (KM20L2 colon): > 100 µM; TGI (DMS 114 small cell lung): 13.4 µM; TGI (DMS 273 small cell lung): > 100 µM; TGI (HOP-18 NSCLC): 82.2 µM; TGI (DLD-1 colon): > 100 µM; TGI (LXFL 529 NSCLC): 29.5 µM; TGI (XF 498 CNS): 15.1 µM
36 | COc1ccc2c(c1)nc1n2C(c2c(F)cccc2F)SC1 (centres undefined) | > 100 µM | > 100 µM | 
37 | Cc1nc(C)c(N2CCN(C(=O)NC(CCC(=O)O)C(=O)O)CC2)c(=O)[nH]1 (centres undefined) | > 100 µM | > 100 µM | 
38 | CC(C)C(=O)CC(Sc1ccc(N)cc1)c1ccccc1 (centres undefined) | > 100 µM | > 100 µM | 
